Drawing on ChEMBL document CHEMBL1147288, “Isolation of flavonoids and a chalcone from Helichrysum odoratissimum and synthesis of helichrysetin” (1989), this text covers MIC for 3 molecules.

Values after ≈ are worked out from the molar mass of the structure shown.

Test [1] deals with Microsporum canis. Description: Antifungal activity against Microsporum canis after 7 days at 27 degC by liquid dilution method. Format: functional.
Test [2] deals with Candida albicans. Description: Antifungal activity against Candida albicans CBS 562 after 24 to 48 hrs at 37 degC by liquid dilution method. The test is classed as functional.
In test [3] the test system is Paecilomyces. The experiment in a line: Antifungal activity against Paecilomyces after 7 days at 27 degC by liquid dilution method. The test is classed as functional.
For test [4], the system named is Aspergillus flavus. Description: Antifungal activity against Aspergillus flavus after 7 days at 27 degC by liquid dilution method. The test is classed as functional.
The test system of test [5] is Epidermophyton floccosum. Description: Antifungal activity against Epidermophyton floccosum after 7 days at 27 degC by liquid dilution method. Format: functional.
The test system of test [6] is Klebsiella pneumoniae. Description: Antibacterial activity against Klebsiella pneumoniae ATCC 13883 after 24 to 48 hrs at 37 degC by liquid dilution method. Format: functional.
Test [7] concerns Staphylococcus aureus. Description: Antibacterial activity against Staphylococcus aureus […] after 24 to 48 hrs at 37 degC by liquid dilution method. Format: functional.
The subject of test [8] is Ralstonia solanacearum. Description: Antibacterial activity against Pseudomonas solanacearum after 24 to 48 hrs at 37 degC by liquid dilution method. Format: functional.
For test [9], the system named is Escherichia coli. The experiment in a line: Antibacterial activity against Escherichia coli ATCC 25922 after 24 to 48 hrs at 37 degC by liquid dilution method. The test is classed as functional.
In test [10] the test system is Pseudomonas aeruginosa. Description: Antibacterial activity against Pseudomonas aeruginosa ATCC 27853 after 24 to 48 hrs at 37 degC by liquid dilution method. The test is classed as functional.
Test [11] relates to Serratia marcescens. The experiment in a line: Antibacterial activity against Serratia marcescens ATCC 8100 after 24 to 48 hrs at 37 degC by liquid dilution method. The test is classed as functional.
Test [12] concerns Mycolicibacterium smegmatis. The experiment in a line: Antibacterial activity against Mycobacterium smegmatis ATCC 607 after 24 to 48 hrs at 37 degC by liquid dilution method. The test is classed as functional.
Test [13] concerns Salmonella typhimurium. Description: Antibacterial activity against Salmonella Typhimurium ATCC 14028 after 24 to 48 hrs at 37 degC by liquid dilution method. The test is classed as functional, Salmonella enterica subsp. enterica serovar Typhimurium. The note with it: Salmonella enterica.
Test [14] deals with Enterobacter cloacae. Description: Antibacterial activity against Enterobacter cloacae ATCC 23355 after 24 to 48 hrs at 37 degC by liquid dilution method. The test is classed as functional.
In test [15] the test system is Streptococcus pyogenes. Description: Antibacterial activity against Streptococcus pyogenes ATCC 19651 after 24 to 48 hrs at 37 degC by liquid dilution method. Format: functional.
Test [16] relates to Bacillus subtilis. Description: Antibacterial activity against Bacillus subtilis ATCC 6633 after 24 to 48 hrs at 37 degC by liquid dilution method. The test is classed as functional.
In test [17] the test system is Shigella dysenteriae. The experiment in a line: Antibacterial activity against Shigella dysenteriae after 24 to 48 hrs at 37 degC by liquid dilution method. Format: functional.
For test [18], the system named is Proteus vulgaris. The experiment in a line: Antibacterial activity against Proteus vulgaris […] after 24 to 48 hrs at 37 degC by liquid dilution method. The test is classed as functional.

One may read the MIC as the lowest concentration that inhibits growth of the organism. A lower MIC goes with inhibition by little substance. As to NYSTATIN, the MIC in test [1] amounted to 50 µg/mL; in test [2] it was 0.78 µg/mL; in test [3] it was 50 µg/mL; in [4] it was 12.5 µg/mL; in [5] it was 100 µg/mL.
For `CN(C)[C@@H]1C(O)=C(C(N)=O)C(=O)[C@@]2(O)C(O)=C3C(=O)c4c(O)cccc4[C@@](C)(O)[C@H]3C[C@@H]12.Cl` [TETRACYCLINE HYDROCHLORIDE], the MIC in test [6] was 12.5 µg/mL; in test [7] it was 100 µg/mL; in test [8], 100 µg/mL; in test [9] it was 6.25 µg/mL; in test [10] it was 100 µg/mL; in test [11], 25 µg/mL. Further, the MIC in test [12] was 100 µg/mL; in test [13], 12.5 µg/mL; in test [14], 12.5 µg/mL; in test [15], 6.25 µg/mL; in test [16], 3.12 µg/mL; in [17], 0.78 µg/mL. This molecule also returned an MIC in test [18] of 25 µg/mL.
Consider `COc1c(-c2ccc(O)c(O)c2)oc2cc(O)cc(O)c2c1=O` [3-O-METHYLQUERCETIN], for which the MIC amounted to 100 µg/mL (≈ 316 µM) in test [6]; 100 µg/mL (≈ 316 µM) in test [1] (168 h); 12.5 µg/mL (≈ 39.5 µM) in test [2]; 6.25 µg/mL (≈ 19.8 µM) in test [7]; 100 µg/mL (≈ 316 µM) in test [8]; 100 µg/mL (≈ 316 µM) in [9]. For the same molecule, the MIC in test [3] (168 h) was 100 µg/mL (≈ 316 µM); in [10], 100 µg/mL (≈ 316 µM); in [11] it was 100 µg/mL (≈ 316 µM); in test [12], 100 µg/mL (≈ 316 µM); in test [4] (168 h), 100 µg/mL (≈ 316 µM); in test [13], 50 µg/mL (≈ 158 µM). The MIC was 100 µg/mL (≈ 316 µM) in [5] (168 h); 100 µg/mL (≈ 316 µM) in test [14]; 100 µg/mL (≈ 316 µM) in [15]; 50 µg/mL (≈ 158 µM) in test [16]; 100 µg/mL (≈ 316 µM) in [17]; 100 µg/mL (≈ 316 µM) in [18].
